Assay results: publication PMC9146377, “Design and Synthesis of Novel Bis-Imidazolyl Phenyl Butadiyne Derivatives as HCV NS5A Inhibitors” (Pharmaceuticals, 2022)
Where two headings read alike, the source gives them in different places.

How the values were obtained:
[1] = tested on: HCV genotype 1b Con-1 subgenomic replicon; test: Anti-HCV luciferase assay, genotype 1b (Con1) subgenomic replicon in Huh5-2 cells; type: cell-based, Hepatitis C virus; settings: for EC50: mean of three experiments; for HCV Replicon 1b SI50: CC50/EC50, Huh5-2 cells
Procedure: (§1) All synthesized compounds were tested against HCV genotype 1b Con-1 subgenomic replicon in the Huh-5-2 stable cell line. Specifically, their activity against viral replication was estimated by measuring firefly luciferase, which is co-expressed by the bicistronic replicon, and their half-maximal effective concentrations (EC50) were determined. In parallel, the half-maximal cytotoxic concentrations (CC50) of the compounds were estimated, and their selective indexes (SI50: CC50/ EC50) were calculated. All novel synthesized compounds were active against HCV 1b with EC50 < 1 µM except for compound 4b (Table 3).
Huh5-2 [65] and Huh7-JFH1 [66] stable cell lines harbor the subgenomic HCV reporter replicon I389luc-ubi-neo/NS3-3′/Con1/5.1 (genotype 1b; strain Con1) and I389luc-ubi-neo/NS3-3′_dg_JFH1 (genotype 2a, JFH1 strain), respectively (kindly provided by R. Bartenschlager, Heidelberg University, Heidelberg, Germany). Huh7.5-3a and Huh7.5-4a stable cell lines harbor the subgenomic HCV reporter replicon S52-SG (Feo) (AII) (genotype 3a; S52 strain) and ED43-SG (Feo) (VYG) (genotype 4a; ED43 strain), respectively (viral constructs kindly provided by C.M. Rice, Rockefeller University, New York, NY, USA). These replicons carry as a first cistron firefly luciferase (F-Luc) and neomycin phosphotransferase genes under the translational control of the HCV internal ribosome entry site (IRES), followed by HCV NS3 to NS5B proteins under the control of the EMCV IRES.
The anti-HCV assay in replicon cells was performed by seeding 1 × 10^4 cells per well in a 96-well plate. After 24 h of incubation at 37 °C (5% CO2) and medium removal, serial dilutions of the test compounds in complete DMEM were added. Cells were lysed after 72 h, and F-Luc activity was measured. The anti-HCV assay for the full-length viral construct H77S.3/GLuc2A was performed after electroporation of Huh7-Lunet cells with viral RNA. Cells were seeded in 96-well plates, the medium was removed 24 h after electroporation, and serial dilutions of the compounds in complete DMEM were added. At 72 h post-treatment, cell supernatants were collected, and G-Luc activity was measured. In addition, the cells were lysed for total protein quantification.
Relative luminescence units (RLU) were expressed as a percentage of the respective units derived from DMSO-treated cells (control). The half-maximal effective concentration (EC50), defined as the concentration of compound that reduces luciferase signal by 50%, was calculated by dose-response curve analysis using Prism 5.0 software (GraphPad Software Inc., San Diego, CA, USA).
The F-Luc activity was measured using the Luciferase Assay System (Promega, Madison, WI, USA), as recommended by the manufacturer. The G-Luc activity was measured using 12 μM coelenterazine (Promega) in assay buffer (50 mM potassium phosphate, pH 7.4, 500 mM NaCl, 1 mM EDTA). Measurements were carried out using a GloMax 20/20 single tube luminometer (Promega) for 10 s. The F-Luc activity was normalized to the total protein amount determined using the Bradford assay reagent (Pierce, Waltham, MA, USA).

[2] = Cytotoxicity assay (intracellular ATP levels) in Huh5-2 replicon cells; type: cell-based; settings: human, Huh5-2 cells, read-out: HCV Replicon 1b CC50
Procedure: as §1
Intracellular ATP levels were measured to determine the cytotoxicity of the compounds in the treated cells. In 96-well plates, 10^4 cells per well were seeded, incubated with serial dilutions of the compounds or DMSO as a control for 72 h at 37 °C (5% CO2) and lysed for ATP measurement. ATP levels were measured using the ViaLight HS BioAssay kit (Lonza, Basel, Switzerland) in a GloMax 20/20 single-tube luminometer (Promega) for 1 s, according to the manufacturer’s protocol. Values were normalized to total protein amounts and used to determine the compound concentration causing 50% cell death (CC50). Nonlinear regression analysis was performed using Prism 5.0 software (GraphPad Software Inc., San Diego, CA, USA).

[3] = Hepatitis C virus, Huh-5-2, 72 h, read-out: HCV Replicon 1b EC50, Huh5-2 cells, Con1 strain, F-Luc, 72 h
[4] = Hepatitis C virus, Huh-5-2, 72 h, Huh5-2 cells, Con1 strain, F-Luc, 72 h, read-out: HCV Replicon 1b EC50

Compound	EC50 [1, 3]	CC50 at 72 h [2]	HCV Replicon 1b SI50 [1]	EC50 [1, 4]	melting point	EC50 ([1]; Huh5-2 cells, Con1 strain, F-Luc, 72 h, read-out: HCV Replicon 1b EC50)
COC(=O)N[C@H](C(=O)N1CCC[C@H]1c1ncc(-c2cccc(C#CC#Cc3cccc(-c4cnc([C@@H]5CCCN5C(=O)[C@@H](NC(=O)OC)C(C)C)[nH]4)c3)c2)[nH]1)C(C)C [Compound 1a, Dimethyl ((2S,2′S)-((2S,2′S)-((buta-1,3-diyne-1,4-diylbis(3,1-phenylene))bis(1H-imidazole-5,2-diyl))bis(pyrrolidine-2,1-diyl))bis(3-methyl-1-oxobutane-1,2diyl))dicarbamate]	166 nM	> 100000 nM	–	–	–	–
COC(=O)N[C@H](C(=O)N1CCC[C@H]1c1ncc(-c2ccc(C#CC#Cc3ccc(-c4cnc([C@@H]5CCCN5C(=O)[C@@H](NC(=O)OC)C(C)C)[nH]4)cc3)cc2)[nH]1)C(C)C [Compound 1b, Dimethyl ((2S,2′S)-((2S,2′S)-((buta-1,3-diyne-1,4-diylbis(4,1-phenylene))bis(1H-imidazole-5,2-diyl))bis(pyrrolidine-2,1-diyl))bis(3-methyl-1-oxobutane-1,2-diyl))dicarbamate]	–	> 100000 nM	>1113.58	89.8 nM	–	–
COC(=O)N[C@@H](C(=O)N1CCC[C@H]1c1ncc(-c2cccc(C#CC#Cc3cccc(-c4cnc([C@@H]5CCCN5C(=O)[C@H](NC(=O)OC)C(C)C)[nH]4)c3)c2)[nH]1)C(C)C [Compound 2a, Dimethyl ((2R,2′R)-((2S,2′S)-((buta-1,3-diyne-1,4-diylbis(3,1-phenylene))bis(1H-imidazole-5,2-diyl))bis(pyrrolidine-2,1-diyl))bis(3-methyl-1-oxobutane-1,2-diyl))dicarbamate]	–	> 100000 nM	>250.06	400 nM	103 to 105 °C	–
COC(=O)N[C@@H](C(=O)N1CCC[C@H]1c1ncc(-c2ccc(C#CC#Cc3ccc(-c4cnc([C@@H]5CCCN5C(=O)[C@H](NC(=O)OC)C(C)C)[nH]4)cc3)cc2)[nH]1)C(C)C [Compound 2b, Dimethyl ((2R,2′R)-((2S,2′S)-((buta-1,3-diyne-1,4-diylbis(4,1-phenylene))bis(1H-imidazole-5,2-diyl))bis(pyrrolidine-2,1-diyl))bis(3-methyl-1-oxobutane-1,2-diyl))dicarbamate]	–	> 100000 nM	>248.20	403 nM	–	–
CCOC(=O)N[C@H](C(=O)N1CCC[C@H]1c1ncc(-c2cccc(C#CC#Cc3cccc(-c4cnc([C@@H]5CCCN5C(=O)[C@@H](NC(=O)OCC)C(C)C)[nH]4)c3)c2)[nH]1)C(C)C [Compound 3a, Diethyl ((2S,2′S)-((2S,2′S)-((buta-1,3-diyne-1,4-diylbis(3,1-phenylene))bis(1H-imidazole-5,2-diyl))bis(pyrrolidine-2,1-diyl))bis(3-methyl-1-oxobutane-1,2-diyl))dicarbamate]	–	> 100000 nM	>629.72	159 nM	124 to 126.7 °C	–
CCOC(=O)N[C@H](C(=O)N1CCC[C@H]1c1ncc(-c2ccc(C#CC#Cc3ccc(-c4cnc([C@@H]5CCCN5C(=O)[C@@H](NC(=O)OCC)C(C)C)[nH]4)cc3)cc2)[nH]1)C(C)C [Compound 3b, Diethyl ((2S,2′S)-((2S,2′S)-((buta-1,3-diyne-1,4-diylbis(4,1-phenylene))bis(1H-imidazole-5,2-diyl))bis(pyrrolidine-2,1-diyl))bis(3-methyl-1-oxobutane-1,2-diyl))dicarbamate]	–	> 100000 nM	>297.44	336 nM	139 to 141 °C	–
CCCCOC(=O)N[C@H](C(=O)N1CCC[C@H]1c1ncc(-c2cccc(C#CC#Cc3cccc(-c4cnc([C@@H]5CCCN5C(=O)[C@@H](NC(=O)OCCCC)C(C)C)[nH]4)c3)c2)[nH]1)C(C)C [Compound 4a, Dibutyl ((2S,2′S)-((2S,2′S)-((buta-1,3-diyne-1,4-diylbis(3,1-phenylene))bis(1H-imidazole-5,2-diyl))bis(pyrrolidine-2,1-diyl))bis(3-methyl-1-oxobutane-1,2-diyl))dicarbamate]	–	> 100000 nM	>110.89	902 nM	–	–
CCCCOC(=O)N[C@H](C(=O)N1CCC[C@H]1c1ncc(-c2ccc(C#CC#Cc3ccc(-c4cnc([C@@H]5CCCN5C(=O)[C@@H](NC(=O)OCCCC)C(C)C)[nH]4)cc3)cc2)[nH]1)C(C)C [Compound 4b, Dibutyl ((2S,2′S)-((2S,2′S)-((buta-1,3-diyne-1,4-diylbis(4,1-phenylene))bis(1H-imidazole-5,2-diyl))bis(pyrrolidine-2,1-diyl))bis(3-methyl-1-oxobutane-1,2-diyl))dicarbamate]	–	> 100000 nM	–	> 1000 nM	136 to 138 °C	–
COC(=O)N[C@@H](CC(C)C)C(=O)N1CCC[C@H]1c1ncc(-c2cccc(C#CC#Cc3cccc(-c4cnc([C@@H]5CCCN5C(=O)[C@H](CC(C)C)NC(=O)OC)[nH]4)c3)c2)[nH]1 [Compound 5a, Dimethyl ((2S,2′S)-((2S,2′S)-((buta-1,3-diyne-1,4-diylbis(3,1-phenylene))bis(1H-imidazole-5,2-diyl))bis(pyrrolidine-2,1-diyl))bis(4-methyl-1-oxopentane-1,2-diyl))dicarbamate]	–	> 100000 nM	>879.51	114 nM	103.1 to 105.3 °C	–
CCOC(=O)N[C@@H](CC(C)C)C(=O)N1CCC[C@H]1c1ncc(-c2cccc(C#CC#Cc3cccc(-c4cnc([C@@H]5CCCN5C(=O)[C@H](CC(C)C)NC(=O)OCC)[nH]4)c3)c2)[nH]1 [Compound 7a, Diethyl ((2S,2′S)-((2S,2′S)-((buta-1,3-diyne-1,4-diylbis(3,1-phenylene))bis(1H-imidazole-5,2-diyl))bis(pyrrolidine-2,1-diyl))bis(4-methyl-1-oxopentane-1,2-diyl))dicarbamate]	97.8 nM	> 100000 nM	>1021.55	–	–	97.9 nM
COC(=O)N[C@H](C(=O)N1CCC[C@H]1c1ncc(-c2ccc(C#CC#Cc3ccc(-c4cnc([C@@H]5CCCN5C(=O)[C@@H](NC(=O)OC)c5ccccc5)[nH]4)cc3)cc2)[nH]1)c1ccccc1 [Compound 9b, Dimethyl ((1S,1′S)-((2S,2′S)-((buta-1,3-diyne-1,4-diylbis(4,1-phenylene))bis(1H-imidazole-5,2-diyl))bis(pyrrolidine-2,1-diyl))bis(2-oxo-1-phenylethane-2,1-diyl))dicarbamate]	–	> 100000 nM	>542.59	184 nM	–	–
COC(=O)N[C@H](C(=O)N1CCC[C@H]1c1nc(-c2ccc(-c3ccc(-c4c[nH]c([C@@H]5CCCN5C(=O)[C@@H](NC(=O)OC)C(C)C)n4)cc3)cc2)c[nH]1)C(C)C [Daclatasvir, reference compound]	–	17700 nM	655,556	0.027 nM	–	–
